Consider two compounds from patent publication US20240381822A1, “PLANT PART QUALITY” (Valent BioSciences LLC, priority 2023, published 2024).

What all share (format): in vivo
In assay [1] the test system is Summer Flame 34 variety Peaches. Nature of the assay: Flesh mealiness of waxed peaches after cold storage (Example 2). Conditions: for Fold Change from Control (Flesh Mealiness Average Score): 1.2 mM single active; for Flesh Mealiness Average Score: 1.2 mM single active in Prima Fresh 55EU wax, 5 degrees Celsius 25 days, 3 day room temperature, 3-point scale. An excerpt:
(§1) Summer Flame 34 variety Peaches were harvested and maintained at room temperature until treatment. Peaches were divided into 4 equal sets. Each treatment type contained 32 peaches and was repeated 3 times for a total of 96 peaches per treatment. For treatment, water, (S)-abscisic acid (“S-ABA”), methyl jasmonate or a mixture of S-ABA and methyl jasmonate were mixed in Prima Fresh 55EU wax and applied in a semicommercial mini packing line to simulate commercial packing conditions. Active ingredients were mixed into the wax at the following concentrations: 1) wax only; 2) 1.2 mM S-ABA; 3) 1.2 mM methyl jasmonate; 4) 1.2 mM S-ABA and 1.2 mM methyl jasmonate. All peaches were immediately stored at 5 degrees Celsius for 25 days. Following cold storage all peaches were placed at room temperature for 3 day and then evaluated for flesh browning as described in Example 1, above and also for flesh mealiness.
Flesh mealiness was determined using a 3-point scale developed by Crisosto G. M. 2015 wherein a score of 1=juicy fruit, 2=moderately mealy fruit (small amount of juice released upon squeezing) and 3=severely mealy fruit (almost no juice released upon squeezing). A flesh mealiness score of 2 or more was determined as a “flesh mealiness incident” and a score of 1 was determined as “healthy fruit” for efficacy purposes.
(§2) Determination of unexpected results was calculated using the method described in Example 1, above.

The subject of assay [2] is Cucumbers. Put plainly: Decay evaluation of cucumbers after cold storage (Example 3). The conditions noted are these: for % Healthy Fruit (decay): 2-minute dip, 5 degrees Celsius 11.5 days, then room temperature, 100% minus % disease incidence. An excerpt: Cucumbers were harvested and waxed and maintained at room temperature until treatment. Cucumbers were divided into 9 equal sets. Each treatment type contained 11-13 cucumbers peaches and was repeated 3 times for a total of 33-39 peaches per treatment. For treatment, water, (S)-abscisic acid (“S-ABA”), methyl jasmonate or a mixture of S-ABA and methyl jasmonate were applied to cucumber after harvest via a 2-minute dip at the following concentrations: 1) water only; 2) 0.3 millimolar (“mM”) S-ABA; 3) 3 mM S-ABA; 4) 0.3 mM methyl jasmonate; 5) 3 mM methyl jasmonate; 6) 0.3 mM S-ABA and 0.3 mM methyl jasmonate; 7) 0.3 mM S-ABA and 3 mM methyl jasmonate; 8) 3 mM S-ABA and 0.3 mM methyl jasmonate or 9) 3 mM S-ABA and 3 mM methyl jasmonate. Each treatment includes 0.025% Latron B-1956® (available from J. R. Simplot Company) as an adjuvant. All cucumbers were subsequently dried for 30 minutes and then stored at 5 degrees Celsius for 11.5 days. Following cold storage all cucumbers were placed at room temperature for 4 days and then evaluated for electrolyte leakage and decay on each of days 1, 2,3 and 4. Decay evaluation was performed by counting the number of cucumbers displaying decay and calculating the percentage of affected cucumbers. Decay severity was evaluated using a 1-3 score system, wherein 1=low, 2=medium and 3=high. Healthy fruit was calculated by subtracting the % of disease incidence from 100%. Determination of unexpected results was calculated using the method described in Example 1. above.

In assay [3] the test system is Summer Flame 34 variety Peaches. Nature of the assay: Flesh browning of waxed peaches after cold storage (Example 2). Conditions: for Fold Change from Control (Flesh Browning Average Score): 1.2 mM single active; for Flesh Browning Average Score: 1.2 mM single active in Prima Fresh 55EU wax, 5 degrees Celsius 25 days, 3 day room temperature, 6-point scale. Here is the method: Flesh browning was determined using a 6-point scale developed by Crisosto G. M. 2015 wherein a score of 1=no browning, 2=very slight browning in the pit cavity, 3=slight browning in the pit cavity and surrounding tissue, 4=moderate browning on less than 50% of the flesh, 5=severe browning on 50% to 75% of the flesh and 6=extreme browning covering most of the flesh. A flesh browning score of more than 3 was determined as a “flesh browning incident” and a score of less than 3 was determined as “healthy fruit” for efficacy purposes.
as §1, §2

The test system of assay [4] is Cucumbers. Nature of the assay: Electrolyte leakage of cucumbers after cold storage (Example 3). Conditions: for % Electrolyte Leakage: 2-minute dip, 5 degrees Celsius 11.5 days, then room temperature. An excerpt: Cucumbers were harvested and waxed and maintained at room temperature until treatment. Cucumbers were divided into 9 equal sets. Each treatment type contained 11-13 cucumbers peaches and was repeated 3 times for a total of 33-39 peaches per treatment. For treatment, water, (S)-abscisic acid (“S-ABA”), methyl jasmonate or a mixture of S-ABA and methyl jasmonate were applied to cucumber after harvest via a 2-minute dip at the following concentrations: 1) water only; 2) 0.3 millimolar (“mM”) S-ABA; 3) 3 mM S-ABA; 4) 0.3 mM methyl jasmonate; 5) 3 mM methyl jasmonate; 6) 0.3 mM S-ABA and 0.3 mM methyl jasmonate; 7) 0.3 mM S-ABA and 3 mM methyl jasmonate; 8) 3 mM S-ABA and 0.3 mM methyl jasmonate or 9) 3 mM S-ABA and 3 mM methyl jasmonate. Each treatment includes 0.025% Latron B-1956® (available from J. R. Simplot Company) as an adjuvant. All cucumbers were subsequently dried for 30 minutes and then stored at 5 degrees Celsius for 11.5 days. Following cold storage all cucumbers were placed at room temperature for 4 days and then evaluated for electrolyte leakage and decay on each of days 1, 2,3 and 4. For electrolyte leakage cucumbers were sliced and a 1-centimeter core sample (i.e. a disc) was taken from each slice. 10 discs were placed in each 50-milliliter centrifuge tube containing 30 milliliter of deionized water and shaken for 25 minutes. Electroconductivity was measured at time zero as soon as the treatments were processed (CO). Electroconductivity was measured again after the discs were shaken in the centrifuge tubes (C1). Finally, electroconductivity was measured after boiling the cucumber sample for 20 minutes and then cooled rapidly (C2). % electrolyte leakage was calculated by the following formula (C1−C0)/C2. Determination of unexpected results was calculated using the method described in Example 1. above.

The test system of assay [5] is Flamin' Fury® variety Peaches. Nature of the assay: Flesh browning of peaches after cold storage (Example 1). Conditions: for % Healthy Fruit: 1-minute dip, 5 degrees Celsius 4 weeks, 1 day room temperature, flesh browning score less than 3. The method, then: ' Fury® variety Peaches were harvested and maintained at room temperature until treatment. Peaches were divided into 9 equal sets. Each treatment type contained 15 peaches and was repeated 3 times for a total of 45 peaches per treatment. For treatment, water, (S)-abscisic acid (“S-ABA”), methyl jasmonate or a mixture of S-ABA and methyl jasmonate were applied to peaches after harvest via a 1-minute dip at the following concentrations: 1) water only; 2) 0.33 millimolar (“mM”) S-ABA; 3) 3.3 mM S-ABA; 4) 0.33 mM methyl jasmonate; 5) 3.3 mM methyl jasmonate; 6) 0.33 mM S-ABA and 0.33 mM methyl jasmonate; 7) 0.3 mM S-ABA and 3.3 mM methyl jasmonate; 8) 3.3 mM S-ABA and 0.33 mM methyl jasmonate or 9) 3.3 mM S-ABA and 3.3 mM methyl jasmonate. Each treatment includes 0.025% Latron B-1956® (available from J. R. Simplot Company) as an adjuvant. All peaches were subsequently dried for 30 minutes and then stored at 5 degrees Celsius for 4 weeks. Following cold storage all peaches were placed at room temperature for 1 day and then evaluated for flesh browning. Flesh browning was determined using a 6-point scale developed by Crisosto G. M. 2015 wherein a score of 1=no browning, 2=very slight browning in the pit cavity, 3=slight browning in the pit cavity and surrounding tissue, 4=moderate browning on less than 50% of the flesh, 5=severe browning on 50% to 75% of the flesh and 6=extreme browning covering most of the flesh. A flesh browning score of more than 3 was determined as a “flesh browning incident” and a score of less than 3 was determined as “healthy fruit” for efficacy purposes. […] To determine if the mixtures provided unexpected results, the observed combined efficacy (“OCE”) was divided by the expected combined efficacy (“ECE”) wherein the expected ECE is calculated by the Abbott method: wherein ECE is the expected combined efficacy and in which A and B are the quality score provided by application of the single active ingredients. If the ratio between the OCE of the mixture and the ECE of the mixture is greater than 1, then greater than expected interactions are present in the mixture. (Gisi, Synergistic Interaction of Fungicides in Mixtures, The American Phytopathological Society, 86:11, 1273-1279,1996).

For `CC/C=C\CC1C(=O)CCC1CC(=O)OC` (centres unmarked) [MJ, methyl jasmonate], in assay [1], the “Fold Change from Control (Flesh Mealiness Average Score)” value is −0.10 and the “Flesh Mealiness Average Score” value is given as 1.50. Further, in the assay with Cucumbers [2] (0.3 mM single active), the “Fold Change from Control (% Healthy Fruit, decay)” value is on record as −0.22 and the “% Healthy Fruit (decay)” value came to 61.5%. In the assay with Cucumbers [2] (3 mM single active), the “Fold Change from Control (% Healthy Fruit, decay)” value was −0.09 and the “% Healthy Fruit (decay)” value turned out to be 71.4%. Besides, in assay [3], the “Fold Change from Control (Flesh Browning Average Score)” value was −0.09 and the “Flesh Browning Average Score” value amounted to 2.79. Further, in the assay with Cucumbers [4] (0.3 mM single active), the “Fold Change from Control (% Electrolyte Leakage)” value is recorded as −0.06 and the “% Electrolyte Leakage” value is given as 60.3%. Moreover, in the assay with Cucumbers [4] (3 mM single active), the “Fold Change from Control (% Electrolyte Leakage)” value is −0.07 and the “% Electrolyte Leakage” value stood at 59.7%. For the same compound, in assay [5] (0.33 mM single active), the “Fold Change from Control (% Healthy Fruit)” value amounted to 1.18 and the “% Healthy Fruit” value amounted to 28.0%. In assay [5] (3.3 mM single active), the “Fold Change from Control (% Healthy Fruit)” value is given as 2.26 and the “% Healthy Fruit” value is given as 41.8%.

`CC1=CC(=O)CC(C)(C)[C@@]1(O)/C=C/C(C)=C/C(=O)O` [S-ABA, (S)-abscisic acid]: in assay [1], the “Fold Change from Control (Flesh Mealiness Average Score)” value is listed as −0.006 and the “Flesh Mealiness Average Score” value is on record as 1.66. Besides, in the assay on Cucumbers [2] (0.3 mM single active), the “Fold Change from Control (% Healthy Fruit, decay)” value was 0.05 and the “% Healthy Fruit (decay)” value is reported as 82.1%. Moreover, in the assay on Cucumbers [2] (3 mM single active), the “Fold Change from Control (% Healthy Fruit, decay)” value is reported as −0.29 and the “% Healthy Fruit (decay)” value was found to be 55.7%. Further, in assay [3], the “Fold Change from Control (Flesh Browning Average Score)” value is −0.016 and the “Flesh Browning Average Score” value was 3.03. Moreover, in the assay on Cucumbers [4] (0.3 mM single active), the “Fold Change from Control (% Electrolyte Leakage)” value is listed as −0.05 and the “% Electrolyte Leakage” value was found to be 61.3%. In the assay with Cucumbers [4] (3 mM single active), the “Fold Change from Control (% Electrolyte Leakage)” value is listed as −0.05 and the “% Electrolyte Leakage” value amounted to 61.3%. For the same compound, in assay [5] (0.33 mM single active), the “Fold Change from Control (% Healthy Fruit)” value amounted to 0.35 and the “% Healthy Fruit” value came to 17.3%. Besides, in assay [5] (3.3 mM single active), the “Fold Change from Control (% Healthy Fruit)” value is reported as −0.33 and the “% Healthy Fruit” value was found to be 8.6%.
